From patent publication US20090240027A1, “INTERMEDIATES FOR MACROCYCLIC COMPOUNDS” (Tranzyme Pharma Inc., priority 2003, published 2009)

target: human motilin receptor (Homo sapiens, UniProt O43193); assay: Competitive radioligand binding assay (Method B1); set-up: purchased PerkinElmer 6110544; host or cells: CHO cells, stably transfected (membranes); conditions: Radioligand competitive binding assay, Method B1; values reported as ranges; read-out: Ki (binding activity)
Procedure: Competitive Radioligand Binding Assay (Motilin Receptor)
• Membranes were prepared from CHO cells stably transfected with the human motilin receptor and utilized at a quantity of 1.5 μg/assay point.
Final Test Concentrations (N=11) for Compounds:
Compounds were provided frozen on dry ice at a stock concentration of 10 mM diluted in 100% DMSO and stored at −20° C. until the day of testing. On the test day, compounds were allowed to thaw at room temperature and than diluted in assay buffer according to the desired test concentrations. Under these conditions, the maximum final DMSO concentration in the assay was 0.5%.
Plates are sealed with TopSeal-A, vortexed gently and incubated at room temperature for 2 hours. The reaction is arrested by filtering samples through pre-soaked (0.3% polyethyleneimine, 2 h) Multiscreen Harvest plates using a Tomtec® Harvester (Tomtec, Hamden, Conn.)), washed 9 times with 500 μL of cold 50 mM Tris-HCl (pH 7.4), and than plates are air-dried in a fumehood for 30 minutes. A bottom seal is applied to the plates prior to the addition of 25 μL of MicroScint-0™ to each well.
Data are analyzed by GraphPad™ Prism (GraphPad Software, San Diego, Calif.) using a variable slope non-linear regression analysis.
where total and non-specific binding represent the cpm obtained in the absence or presence of 1 μM motilin, respectively.

human motilin receptor, sequence (O43193 whole entry): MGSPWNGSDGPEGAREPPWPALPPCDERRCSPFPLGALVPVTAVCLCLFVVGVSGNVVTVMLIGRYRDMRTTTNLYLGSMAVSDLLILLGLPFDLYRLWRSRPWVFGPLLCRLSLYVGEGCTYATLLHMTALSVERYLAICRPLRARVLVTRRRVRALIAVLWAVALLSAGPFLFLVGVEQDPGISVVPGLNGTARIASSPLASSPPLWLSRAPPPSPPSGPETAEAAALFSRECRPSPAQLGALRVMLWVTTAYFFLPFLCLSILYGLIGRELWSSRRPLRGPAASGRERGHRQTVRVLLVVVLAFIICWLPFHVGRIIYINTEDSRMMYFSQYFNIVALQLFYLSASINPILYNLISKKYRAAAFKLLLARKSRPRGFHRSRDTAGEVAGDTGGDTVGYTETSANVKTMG

Row | Compound | Ki [nM]
1 | CCC[C@@H]1NC(=O)[C@@H](C(C)C)NC(=O)[C@@H](Cc2ccccc2)NCCOc2ccccc2/C=C/CNC1=O [Compound 2] | 1 to 100
2 | CCCC1NC(=O)C(C)NC(=O)C(Cc2ccc(O)cc2)NCCOc2ccccc2C=CCNC1=O (stereo not drawn) [Compound 5] | 100 to 1000
3 | CSCCC1NC(=O)C(C(C)C)NC(=O)C(Cc2ccc(O)cc2)NCCOc2ccccc2C=CCNC1=O (stereo not drawn) [Compound 6] | 100 to 1000
4 | CCCCC1NC(=O)C(C(C)C)NC(=O)C(Cc2ccc(O)cc2)NCCOc2ccccc2C=CCNC1=O (stereo not drawn) [Compound 7] | 100 to 1000
5 | CC(C)C1NC(=O)C(Cc2ccc(O)cc2)NCCOc2ccccc2C=CCNC(=O)C(C(C)C)NC1=O (stereo not drawn) [Compound 9] | 100 to 1000
6 | CC(C)C[C@@H]1NC(=O)[C@@H](C(C)C)NC(=O)[C@@H](Cc2ccc(O)cc2)NCCOc2ccccc2/C=C/CNC1=O [Compound 10] | 1 to 100
7 | CCC1NC(=O)C(C(C)C)NC(=O)C(Cc2ccc(O)cc2)NCCOc2ccccc2C=CCNC1=O (stereo not drawn) [Compound 12] | 100 to 1000
8 | CC(C)CC1NC(=O)C(C(C)C)NC(=O)C(Cc2ccccc2)NCCOc2ccccc2CCCNC1=O (stereo not drawn) [Compound 13] | 100 to 1000
9 | CC(C)C[C@@H]1NC(=O)[C@@H](C(C)C)NC(=O)[C@@H](Cc2ccc3ccccc3c2)NCCOc2ccccc2CCCNC1=O [Compound 14] | 100 to 1000
10 | CCC[C@@H]1NC(=O)[C@@H](C(C)C)NC(=O)[C@@H](Cc2cccc(Cl)c2)NCCOc2ccccc2CCCNC1=O [Compound 15] | 1 to 100
11 | CCC[C@@H]1NC(=O)[C@@H](C(C)C)NC(=O)[C@@H](Cc2ccc(Cl)cc2)NCCOc2ccccc2CCCNC1=O [Compound 16] | 1 to 100
12 | CCC[C@@H]1NC(=O)[C@@H](C(C)C)NC(=O)[C@@H](Cc2c[nH]c3ccccc23)NCCOc2ccccc2CCCNC1=O [Compound 17] | 100 to 1000
13 | CCCC1NC(=O)C(CC)NC(=O)C(Cc2ccc(O)cc2)NCCOc2ccccc2CCCNC1=O (stereo not drawn) [Compound 18] | 100 to 1000
14 | CCC[C@@H]1NC(=O)[C@@H](C(C)C)NC(=O)[C@@H](Cc2ccc(F)cc2)NCCOc2ccccc2CCCNC1=O [Compound 19] | 1 to 100
15 | CC(C)CC1NC(=O)C(C(C)C)NC(=O)C(Cc2ccccc2)NCCOc2ccccc2C=CCNC1=O (stereo not drawn) [Compound 20] | 100 to 1000
16 | CC(C)C[C@@H]1NC(=O)[C@@H](C(C)C)NC(=O)[C@@H](Cc2ccc3ccccc3c2)NCCOc2ccccc2/C=C/CNC1=O [Compound 21] | 1 to 100
17 | CCC[C@@H]1NC(=O)[C@@H](C(C)C)NC(=O)[C@@H](Cc2ccc(OC)cc2)NCCOc2ccccc2CCCNC1=O [Compound 22] | 1 to 100
18 | CCC[C@@H]1NC(=O)[C@@H](C(C)C)NC(=O)[C@@H](Cc2cccc3ccccc23)NCCOc2ccccc2CCCNC1=O [Compound 23] | 1 to 100
19 | CCCC1NC(=O)C(C(C)C)NC(=O)C(Cc2ccccc2Cl)NCCOc2ccccc2CCCNC1=O (stereo not drawn) [Compound 25] | 100 to 1000
20 | CC(C)[C@H]1NC(=O)[C@@H](Cc2ccc(O)cc2)NCCOc2ccccc2CCCNC(=O)[C@H](CC2CC2)NC1=O [Compound 26] | 1 to 100

Row | Compound | Ki [nM]
21 | CCCC1NC(=O)C(C(C)C)NC(=O)C(Cc2cscn2)NCCOc2ccccc2CCCNC1=O (stereo not drawn) [Compound 27] | 100 to 1000
22 | CCCC1NC(=O)C(C(C)C)NC(=O)C(Cc2cccnc2)NCCOc2ccccc2CCCNC1=O (stereo not drawn) [Compound 28] | 100 to 1000
23 | CCCC1NC(=O)C(Cc2ccc(O)cc2)NC(=O)C(Cc2ccc(O)cc2)NCCOc2ccccc2C=CCNC1=O (stereo not drawn) [Compound 34] | 100 to 1000
24 | CC1NC(=O)C(C(C)C)NC(=O)C(Cc2ccc(O)cc2)NCCOc2ccccc2C=CCNC1=O (stereo not drawn) [Compound 38] | 1000 to 10000
25 | CC(C)C1NC(=O)C(Cc2ccc(O)cc2)NCCOc2ccccc2C=CCNC(=O)CNC1=O (stereo not drawn) [Compound 40] | 1000 to 10000
26 | CCCC1NC(=O)C(Cc2ccccc2)NC(=O)C(Cc2ccc(O)cc2)NCCOc2ccccc2C=CCNC1=O (stereo not drawn) [Compound 41] | 1000 to 10000
27 | CC(C)C1NC(=O)C(Cc2ccc(O)cc2)NCCOc2ccccc2C=CCNC(=O)C(c2ccccc2)NC1=O (stereo not drawn) [Compound 52] | 100 to 1000
28 | CC(C)C1NC(=O)C(Cc2ccc(O)cc2)NCCOc2ccccc2C=CCNC(=O)C(CCCCN)NC1=O (stereo not drawn) [Compound 55] | 100 to 1000
29 | CC(C)C1NC(=O)C(Cc2ccc(O)cc2)NCCOc2ccccc2C=CCNC(=O)C(CCCN)NC1=O (stereo not drawn) [Compound 56] | 100 to 1000
30 | CC(C)C1NC(=O)C(Cc2ccc(O)cc2)NCCOc2ccccc2C=CCNC(=O)C(CO)NC1=O (stereo not drawn) [Compound 57] | 100 to 1000
31 | CC(C)C1NC(=O)C(Cc2ccc(O)cc2)NCCOc2ccccc2C=CCNC(=O)C(Cc2ccc(O)cc2)NC1=O (stereo not drawn) [Compound 58] | 100 to 1000
32 | CC(C)C1NC(=O)C(Cc2ccc(O)cc2)NCCOc2ccccc2C=CCNC(=O)C(Cc2c[nH]c3ccccc23)NC1=O (stereo not drawn) [Compound 59] | 100 to 1000
33 | COc1ccc(CC2NC(=O)C(C(C)C)NC(=O)C(Cc3ccc(O)cc3)NCCOc3ccccc3C=CCNC2=O)cc1 (stereo not drawn) [Compound 60] | 1000 to 10000
34 | CCCC1NC(=O)C(C(C)C)NC(=O)C(Cc2ccc(O)cc2)NCCOc2cccc(c2)OCCNC1=O (stereo not drawn) [Compound 71] | 100 to 1000
35 | CC(C)C1NC(=O)C(Cc2ccc(O)cc2)NCCOc2ccccc2C=CCNC(=O)C(Cc2ccc3ccccc3c2)NC1=O (stereo not drawn) [Compound 72] | 100 to 1000
36 | CCCC1NC(=O)C(Cc2ccc3ccccc3c2)NC(=O)C(Cc2ccc(O)cc2)NCCOc2ccccc2C=CCNC1=O (stereo not drawn) [Compound 76] | 1000 to 10000
37 | CCCCC1NC(=O)C(Cc2ccc(O)cc2)NCCOc2ccccc2C=CCNC(=O)C(CCC)NC1=O (stereo not drawn) [Compound 77] | 1000 to 10000
38 | CCC(C)C1NC(=O)C(C(C)C)NC(=O)C(Cc2ccc(O)cc2)NCCOc2ccccc2C=CCNC1=O (stereo not drawn) [Compound 80] | 100 to 1000
39 | CCCC1NC(=O)C(C(C)C)NC(=O)C(Cc2ccc(O)cc2)NCCOc2ccccc2C=CCNC1=O (stereo not drawn) [Compound 85] | 100 to 1000

Results, then the compound that gave them:

Row | Ki [nM] | Compound
40 | 100 to 1000 | CCCC1NC(=O)C(C(C)C)NC(=O)C(Cc2ccc(-c3ccccc3)cc2)NCCOc2ccccc2CCCNC1=O (stereo not drawn) [Compound 87]
41 | 1000 to 10000 | CCCC1NC(=O)C(C(C)C)NC(=O)C(Cc2ccc(OC(C)(C)C)cc2)NCCOc2ccccc2CCCNC1=O (stereo not drawn) [Compound 88]
42 | 1000 to 10000 | CCCC1NC(=O)C(C(C)C)NC(=O)C(CCc2ccccc2)NCCOc2ccccc2CCCNC1=O (stereo not drawn) [Compound 89]
43 | 1000 to 10000 | CCCC1NC(=O)C(C(C)C)NC(=O)C(C(c2ccccc2)c2ccccc2)NCCOc2ccccc2CCCNC1=O (stereo not drawn) [Compound 90]
44 | 1000 to 10000 | CCCC1NC(=O)C(CCC)NC(=O)C(Cc2ccc(O)cc2)NCCOc2ccccc2CCCNC1=O (stereo not drawn) [Compound 91]
45 | 100 to 1000 | CCCC1NC(=O)C(C(C)(C)C)NC(=O)C(Cc2ccc(O)cc2)NCCOc2ccccc2CCCNC1=O (stereo not drawn) [Compound 92]
46 | 1000 to 10000 | CCCC1NC(=O)CCNC(=O)C(Cc2ccc(O)cc2)NCCOc2ccccc2CCCNC1=O (stereo not drawn) [Compound 96]
47 | 1000 to 10000 | CCCC1NC(=O)C(C2CCCCC2)NC(=O)C(Cc2ccc(O)cc2)NCCOc2ccccc2CCCNC1=O (stereo not drawn) [Compound 97]
48 | 1000 to 10000 | CCCC1NC(=O)C(C(C)C)NC(=O)C(Cc2ccc(O)cc2)NCCCNCCNC1=O (stereo not drawn) [Compound 98]
49 | 1000 to 10000 | CCCC1NC(=O)C(C(C)C)NC(=O)C(Cc2ccc(O)cc2)NCCN(C)CCNC1=O (stereo not drawn) [Compound 99]
50 | 100 to 1000 | CC(C)C1NC(=O)C(Cc2ccc(O)cc2)NCCOc2ccccc2CCCNC(=O)C(CCN)NC1=O (stereo not drawn) [Compound 109]
51 | 100 to 1000 | CCCC1NC(=O)C(C(C)C)NC(=O)C(Cc2ccc(O)cc2)NCCOc2cccnc2CCCNC1=O (stereo not drawn) [Compound 110]
52 | 100 to 1000 | CCCC1NC(=O)C(C(C)C)NC(=O)C(Cc2ccccn2)NCCOc2ccccc2CCCNC1=O (stereo not drawn) [Compound 123]
53 | 100 to 1000 | CCCC1NC(=O)C(C(C)C)NC(=O)C(Cc2ccncc2)NCCOc2ccccc2CCCNC1=O (stereo not drawn) [Compound 124]
54 | 100 to 1000 | CCCC1NC(=O)C(C2CC2)NC(=O)C(Cc2ccc(O)cc2)NCCOc2ccccc2CCCNC1=O (stereo not drawn) [Compound 125]
55 | 100 to 1000 | CCCC1NC(=O)C(C(C)C)NC(=O)C(Cc2c[nH]cn2)NCc2ccccc2Sc2ccccc2CNC1=O (stereo not drawn) [Compound 127]
56 | 100 to 1000 | COc1ccc(C[C@H]2NCCOc3ccccc3CCCNC(=O)[C@H](CC(C)C)NC(=O)[C@@H](C(C)C)NC2=O)cc1 [Compound 128]
57 | 100 to 1000 | CC(C)CC1NC(=O)C(C(C)C)NC(=O)C(Cc2cccs2)NCCOc2ccccc2CCCNC1=O (stereo not drawn) [Compound 130]
58 | 1 to 100 | CC(C)C[C@@H]1NC(=O)[C@@H](C(C)C)NC(=O)[C@@H](Cc2cccc(Cl)c2)NCCOc2ccccc2CCCNC1=O [Compound 131]
59 | 1 to 100 | CC(C)C[C@@H]1NC(=O)[C@@H](C(C)C)NC(=O)[C@@H](Cc2ccc(Cl)cc2)NCCOc2ccccc2CCCNC1=O [Compound 132]
60 | 1 to 100 | CC(C)C[C@@H]1NC(=O)[C@@H](C(C)C)NC(=O)[C@@H](Cc2ccc(F)cc2)NCCOc2ccccc2CCCNC1=O [Compound 133]
61 | 100 to 1000 | COc1ccc(CC2NCCOc3cccnc3CCCNC(=O)C(CC(C)C)NC(=O)C(C(C)C)NC2=O)cc1 (stereo not drawn) [Compound 135]

same assay, conditions: [125I]-motilin competition, CHO cell membranes with human motilin receptor; read-out: Binding activity (Ki)

Row | Ki [nM] | Compound
62 | 100 to 1000 | CCCC1NC(=O)C(C(C)C)NC(=O)C(Cc2ccc(O)cc2)NCCOc2ccccc2C=CCNC1=O (stereo not drawn) [Compound 1]

same assay, conditions: result in words; linear analogue of compound 1

Row | Binding activity | Compound
63 | lack of binding activity | CCC[C@H](NC(=O)[C@H](NC(=O)[C@@H](Cc1ccc(O)cc1)NCCOc1ccccc1/C=C/CNC(C)=O)C(C)C)C(N)=O [Compound 121]
